Laboratory results from paper PMC2248166, “Quantitative peptide binding motifs for 19 human and mouse MHC class I molecules derived using positional scanning combinatorial peptide libraries” (Immunome Research, 2008).

What was measured:
Assay type in all cases: binding
HLA A*6802 = HLA A*6802 (Homo sapiens, UniProt P04439, A269V/D140Y/D185E/E176V/E277Q/E87N/F33Y/G231S/I121R/I166T/I218V/L180W/L300P/L318F/N151K/P208A/P217A/Q86R/R138H/R169H/S129P/T345S/V36M)
HLA A*3201 = HLA A*3201 (Homo sapiens, UniProt P04439, A270S/D101S/D185E/E176V/E277Q/F133L/G103R/G107R/G231S/H175R/I121M/I218V/I322F/K168Q/L105A/L300P/L318F/M331R/P208A/P217A/Q94H/R106L/R138Q/S129P/T104I/T323A/T345S/V100E/V321M/V358M); test: biochemical
H-2 D^d = H-2 D^d (Mus musculus, UniProt P01900)
HLA B*1503 = HLA B*1503 (Homo sapiens, UniProt P01889, A329T/A93T/A95T/C349S/D201E/D98Y/E187L/E204Q/K202T/N87E/Q94N/R155S/R180L/S121R/S35A/V306I/V36M/Y140S/Y91S); test: biochemical
HLA A*3001 = HLA A*3001 (Homo sapiens, UniProt P04439, D140H/D185E/E176W/F33S/G80R/H175R/K168Q/R138E/R41S); test: biochemical
H-2 D^b = H-2 D^b (Mus musculus, UniProt P01899)
HLA B*5101 = HLA B*5101 (Homo sapiens, UniProt P01889, A329T/A93T/A95T/C349S/D138N/D201E/D98Y/E187L/E204Q/E69T/G107R/I218V/K202T/L105A/L119W/N104I/Q94N/R106L/R155S/R180L/S101N/S121T/S35A/S48A/V306I/V36M/Y195H/Y91F)
HLA B*5301 = HLA B*5301 (Homo sapiens, UniProt P01889, A329T/A93T/A95T/C349S/D201E/D98Y/E176V/E187L/E204Q/E69T/G107R/I218V/K202T/L105A/L119I/N104I/Q94N/R106L/R155S/R180L/S101N/S121R/S35A/S48A/T118I/V127L/V306I/V36M/Y140S/Y91F)
H-2 K^k = H-2 K^k (Mus musculus, UniProt P04223)
HLA B*0801 = HLA B*0801 (Homo sapiens, UniProt P01889, A93T/A95T/D138N/E176V/E187T/K202T/Q94N/R180D/S35A/V36M/Y33D/Y91F); test: biochemical
H-2 K^d = H-2 K^d (Mus musculus, UniProt P01902)
HLA B*5801 = HLA B*5801 (Homo sapiens, UniProt P01889, A329T/C349S/D201E/D98Y/E176V/E187L/E204Q/E69T/G107R/I218V/I90N/K202T/L105A/L119I/N104I/N87E/Q89R/Q94S/R106L/R155S/R180L/R86G/S101N/S121R/S35A/S48A/T118I/V127L/V306I/V36M/Y140S/Y91M)
HLA B*3501 = HLA B*3501 (Homo sapiens, UniProt P01889, A329T/A93T/A95T/C349S/D201E/D98Y/E176V/E187L/E204Q/E69T/I218V/K202T/L119I/Q94N/R155S/R180L/S121R/S35A/S48A/T118I/V127L/V306I/V36M/Y140S/Y91F)
HLA B*1501 = HLA B*1501 (Homo sapiens, UniProt P01889, A329T/A93T/A95T/C349S/D201E/D98Y/E187L/E204Q/E69M/E70A/K202T/N87E/Q94N/R155S/R180W/S121R/S35A/S48A/V306I/V36M/Y140S/Y91S); test: biochemical
HLA B*5802 = HLA B*5802 (Homo sapiens, UniProt P01889, A329T/C349S/D201E/D98Y/E176V/E187L/E204Q/E69T/G107R/I218V/I90N/K202T/L105A/N104I/N87E/Q89R/Q94S/R106L/R155S/R180L/R86G/S101N/S121W/S35A/S48A/V127L/V306I/V36M/Y140S/Y91M)
HLA B*5401 = HLA B*5401 (Homo sapiens, UniProt P01889, A329T/C349S/D138N/D201E/E176V/E187T/E204Q/E69G/I76V/K202T/L119W/R155S/R180L/S121T/S35A/S48A/V127L/V306I/V36M/Y140L)

H-2 D^d, sequence (P01900 whole entry, looked up): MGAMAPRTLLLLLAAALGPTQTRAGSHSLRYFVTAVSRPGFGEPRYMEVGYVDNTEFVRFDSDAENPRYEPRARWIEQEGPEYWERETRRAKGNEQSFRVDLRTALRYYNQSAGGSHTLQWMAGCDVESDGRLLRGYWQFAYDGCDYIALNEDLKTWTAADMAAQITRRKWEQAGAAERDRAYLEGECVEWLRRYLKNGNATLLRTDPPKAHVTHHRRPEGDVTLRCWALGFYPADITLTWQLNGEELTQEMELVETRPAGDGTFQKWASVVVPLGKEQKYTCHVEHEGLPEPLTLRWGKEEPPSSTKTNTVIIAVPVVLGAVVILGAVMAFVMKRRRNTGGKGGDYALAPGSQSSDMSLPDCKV
H-2 K^k, sequence (P01887 21-119): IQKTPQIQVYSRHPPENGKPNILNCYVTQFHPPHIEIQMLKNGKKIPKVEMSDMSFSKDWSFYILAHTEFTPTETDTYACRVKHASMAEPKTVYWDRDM
H-2 K^k, sequence (P04223 22-369): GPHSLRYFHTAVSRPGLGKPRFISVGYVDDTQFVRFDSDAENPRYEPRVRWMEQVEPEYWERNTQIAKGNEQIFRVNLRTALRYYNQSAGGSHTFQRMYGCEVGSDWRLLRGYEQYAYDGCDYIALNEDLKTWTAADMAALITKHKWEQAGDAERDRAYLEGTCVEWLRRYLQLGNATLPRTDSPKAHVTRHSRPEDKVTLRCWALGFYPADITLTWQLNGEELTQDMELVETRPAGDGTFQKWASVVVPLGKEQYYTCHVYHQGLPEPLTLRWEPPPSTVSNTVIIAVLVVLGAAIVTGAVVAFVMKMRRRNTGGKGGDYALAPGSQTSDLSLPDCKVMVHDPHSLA
H-2 D^b, sequence (P01887 21-119): as the sequence (P01887 21-119) above
H-2 D^b, sequence (P01899 25-362): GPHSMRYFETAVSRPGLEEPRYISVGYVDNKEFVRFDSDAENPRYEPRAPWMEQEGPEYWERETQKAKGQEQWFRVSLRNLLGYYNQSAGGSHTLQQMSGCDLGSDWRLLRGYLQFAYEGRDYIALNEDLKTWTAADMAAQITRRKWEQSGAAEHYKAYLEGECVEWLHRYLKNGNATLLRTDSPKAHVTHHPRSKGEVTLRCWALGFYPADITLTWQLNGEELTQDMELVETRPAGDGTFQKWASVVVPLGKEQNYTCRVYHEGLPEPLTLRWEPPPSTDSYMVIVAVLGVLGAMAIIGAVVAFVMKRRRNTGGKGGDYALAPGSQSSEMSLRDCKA
H-2 K^d, sequence (P01887 21-119): as the sequence (P01887 21-119) above
H-2 K^d, sequence (P01902 22-368): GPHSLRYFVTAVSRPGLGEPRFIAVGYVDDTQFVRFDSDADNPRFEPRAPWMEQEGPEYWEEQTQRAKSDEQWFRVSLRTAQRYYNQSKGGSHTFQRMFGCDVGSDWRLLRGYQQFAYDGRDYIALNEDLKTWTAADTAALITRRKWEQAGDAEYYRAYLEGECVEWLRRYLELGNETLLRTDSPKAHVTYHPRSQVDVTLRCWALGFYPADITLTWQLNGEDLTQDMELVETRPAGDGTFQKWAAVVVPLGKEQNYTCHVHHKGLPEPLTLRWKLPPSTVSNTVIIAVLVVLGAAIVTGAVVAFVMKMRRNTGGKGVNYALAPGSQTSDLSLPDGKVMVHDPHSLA

Sequence | Normalized average relative binding affinity(ARB) (HLA A*6802) | Normalized average relative binding affinity(ARB) (HLA A*3201) | Normalized average relative binding affinity(ARB) (H-2 D^d) | Normalized average relative binding affinity(ARB) (HLA B*1503) | Normalized average relative binding affinity(ARB) (HLA A*3001) | Normalized average relative binding affinity(ARB) (H-2 D^b) | Normalized average relative binding affinity(ARB) (HLA B*5101) | Normalized average relative binding affinity(ARB) (HLA B*5301) | Normalized average relative binding affinity(ARB) (H-2 K^k) | Normalized average relative binding affinity(ARB) (HLA B*0801) | Normalized average relative binding affinity(ARB) (H-2 K^d) | Normalized average relative binding affinity(ARB) (HLA B*5801) | Normalized average relative binding affinity(ARB) (HLA B*3501) | Normalized average relative binding affinity(ARB) (HLA B*1501) | Normalized average relative binding affinity(ARB) (HLA B*5802) | Normalized average relative binding affinity(ARB) (HLA B*5401)
XXXXKXXXX [3064.0089] | 0.14 | 0.16 | 0.44 | 0.13 | 0.16 | 0.032 | 0.29 | 0.042 | 0.091 | 0.47 | 0.011 | 0.11 | 0.12 | 0.31 | 0.58 | 0.049
XXXXLXXXX [3064.0090] | 0.43 | 0.57 | 0.28 | 0.090 | 0.14 | 0.10 | 0.30 | 0.18 | 0.11 | 0.062 | 0.18 | 0.25 | 0.23 | 0.69 | 0.063 | 0.15
XXXXMXXXX [3064.0091] | 0.78 | 0.31 | 0.19 | 0.064 | 0.33 | 0.086 | 0.45 | 0.38 | 0.24 | 0.078 | 0.60 | 0.092 | 0.98 | 0.41 | 0.42 | 0.72
XXXXNXXXX [3064.0092] | 0.30 | 0.16 | 0.19 | 0.26 | 0.12 | 1.0 | 0.40 | 0.17 | 0.090 | 0.037 | 0.21 | 0.13 | 1.0 | 0.56 | 0.31 | 0.34
XXXXPXXXX [3064.0093] | 0.16 | 0.16 | 0.023 | 0.46 | 0.53 | 0.038 | 0.50 | 0.14 | 0.072 | 0.011 | 0.094 | 0.19 | 0.37 | 0.89 | 0.075 | 0.51
XXXXQXXXX [3064.0094] | 0.077 | 0.38 | 0.15 | 0.20 | 0.20 | 0.023 | 0.29 | 0.12 | 0.099 | 0.037 | 0.15 | 0.19 | 0.28 | 1.0 | 0.063 | 0.40
XXXXRXXXX [3064.0095] | 0.19 | 0.27 | 1.0 | 0.28 | 0.80 | 0.020 | 0.49 | 0.11 | 0.072 | 1.0 | 0.023 | 0.15 | 0.23 | 0.64 | 0.20 | 0.21
XXXXSXXXX [3064.0096] | 0.34 | 0.20 | 0.21 | 0.47 | 1.0 | 0.079 | 0.35 | 0.16 | 0.18 | 0.065 | 1.0 | 0.31 | 0.27 | 0.71 | 0.063 | 0.18
